Source: patent US11505576B2, “Polypeptides based on a scaffold” (AFFIBODY AB, priority 2018, dated 2022)

Columns and labels:
[1] = Circular dichroism spectroscopy analysis (CD spectra, variable temperature measurement, refolding); format: physicochemical; settings: Table 7; MGSSHHHHHHGSS-[Y#####]-A
How it was run: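 Y variants at 0.5 mg/ml in PBS were scanned from 250 to 195 nm at 20° C. in a 1 mm cell. Tm came from the 221 nm signal during heating from 20 to 90° C. at 5° C./min, and a second 20° C. spectrum after heating assessed refolding. Selected IL-6 binders were also recorded at 60, 70, 80 and 90° C.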

[2] = biological target: C4; assay: Kinetic analysis using surface plasmon resonance (Biacore T200), immobilized C4; format: binding; settings: Table 7; MGSSHHHHHHGSS-[Y#####]-A
Description: Kinetic constants (ka and kd) and affinities (KD) were determined for His6-tagged Y variants using a Biacore T200 instrument (GE Healthcare). Target proteins C4, IL-6 and insulin, respectively, were immobilized in separate flow cells on the carboxylated dextran layer of different CM5 chip surfaces (GE Healthcare). Immobilization was performed using amine coupling chemistry according to the manufacturer's protocol and PBS pH 7.4 supplemented with 0.1 Tween20 (PBST 0.1%) as running buffer. The ligand immobilization levels on the surfaces were 3280-8830 RU for C4, 495-1184 RU for IL-6, and 270-282 RU for insulin. One flow cell surface on each chip was activated and deactivated for use as blank during analyte injections. In the kinetic experiment, PBST 0.1% was used as running buffer at a flow rate of 30 μl/min. The analytes, i.e. Y variants, were each diluted in PBST 0.1 buffer at concentrations of 1000, 500, 100, 50 and 10 nM and injected for 5 min, followed by dissociation in running buffer for 3 min. After dissociation, the surfaces were regenerated with one injection of 30 μl 10 mM HCl. Kinetic constants were calculated from the sensorgrams using the Langmuir 1:1 model of Biacore T200 Evaluation software 2.0 (GE Healthcare).
Produced Y variants were subjected to CD and SPR analyses according to the methods described in Example 1.
The Y variants were cloned, produced and characterized according to the general methods described in Example 1. Produced Y variants with point mutations and/or N-terminal or C-terminal extensions were subjected to CD and SPR analyses as described in Example 1.
Produced Y variants were subjected to CD and SPR analyses according to the methods described in Example 1. In addition, CD spectra of selected IL-6 binding variants were also recorded at 60, 70, 80 and 90° C.

[3] = Fraction of soluble product on expression in E. coli, estimated from SDS-PAGE; format: physicochemical; settings: Table 7; Ylib002Naive.I selection; MGSSHHHHHHGSS-[Y#####]-A
How it was run: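 E. coli T7E2 cultures with 50 μg/ml kanamycin were grown at 30-37 °C (EnPresso), induced with 0.5 mM IPTG at OD600 ~10 and harvested after 16 h. Alternatively, cultures were grown at 37 °C in TSB-YE, induced with 0.2 mM IPTG at OD600=2 and harvested after 5 h. Soluble and insoluble fractions were estimated by SDS-PAGE.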

| Kd [2] | kd [2] | Substance | Tm [1] | ka [2] | Estimated soluble fraction [3] |
| --- | --- | --- | --- | --- | --- |
| 2200 nM | 0.21 s⁻¹ | Y02303: C4 binding Y variant from Ylib002Naive.I, SEQ ID NO:34 (LAEAKEAAIAELDSKGVGAEEIKWIQNAWSVEGVQIMKQQILAELPA; Engineered C4 binding Y variant) | 43 °C | 96000 M⁻¹ s⁻¹ | 100% |
| 70 nM | 0.0025 s⁻¹ | Y02309: C4 binding Y variant from Ylib002Naive.I, SEQ ID NO:35 (LAEAKEAAIAELDSKGVGADLIKKIQKAESVEGVQFWKQEILATLPA; Engineered C4 binding Y variant) | 56 °C | 36000 M⁻¹ s⁻¹ | 100% |
| 48 nM | 0.0046 s⁻¹ | Y02330: C4 binding Y variant from Ylib002Naive.I, SEQ ID NO:37 (LAEAKEAAIAELDSKGVGAELIKKIQHAESVEGVQFWKQEILAYLPA; Engineered C4 binding Y variant) | 49 °C | 96000 M⁻¹ s⁻¹ | 100% |
| 1900 nM | 0.81 s⁻¹ | Y02337: C4 binding Y variant from Ylib002Naive.I, SEQ ID NO:38 (LAEAKEAAIAELDSKGVGAAEIKWIQHASTVEGVQGRKQQILAELPA; Engineered C4 binding Y variant) | 31 °C | 420000 M⁻¹ s⁻¹ | 100% |
| 16 nM | 0.0014 s⁻¹ | Y02358: C4 binding Y variant from Ylib002Naive.I, SEQ ID NO:39 (LAEAKEAAIAELDSKGVGADDIKLIQDAPSVEGVQEIKQFILAQLPA; Engineered C4 binding Y variant) | 51 °C | 90000 M⁻¹ s⁻¹ | 100% |
